# Assay results as given in ChEMBL document CHEMBL1142807, “Diprolyl nitriles as potent dipeptidyl peptidase IV inhibitors” (Bioorg Med Chem Lett, 2005).
# Assay: Inhibitory activity against Dipeptidyl peptidase IV
row,Ki [nM],Compound
1,39,N#C[C@@H]1C[C@@H]2C[C@@H]2N1C(=O)[C@@H]1C[C@H](NS(=O)(=O)c2ccc(Cl)cc2)CN1
2,290,CC[C@H]1CCN[C@@H]1C(=O)N1[C@H](C#N)C[C@@H]2C[C@@H]21
3,> 10000,N#C[C@@H]1C[C@@H]2C[C@@H]2N1C(=O)[C@@H]1CCCCN1
4,126,C[C@H]1CCN[C@@H]1C(=O)N1[C@H](C#N)C[C@@H]2C[C@@H]21
5,133,CC(C)(C)CC(=O)N[C@@H]1CN[C@H](C(=O)N2[C@H](C#N)C[C@@H]3C[C@@H]32)C1
6,37,CC1(C)CCN[C@@H]1C(=O)N1[C@H](C#N)C[C@@H]2C[C@@H]21
7,305,N#C[C@@H]1C[C@@H]2C[C@@H]2N1C(=O)[C@@H]1CCCN1
8,57,N#C[C@@H]1C[C@@H]2C[C@@H]2N1C(=O)[C@@H]1C[C@H](NC(=O)OCC2c3ccccc3-c3ccccc32)CN1
9,140,CC(C)(C)OC(=O)N[C@@H]1CN[C@H](C(=O)N2[C@H](C#N)C[C@@H]3C[C@@H]32)C1
10,> 10000,N#C[C@@H]1C[C@@H]2C[C@@H]2N1C(=O)[C@H]1CCCN1
11,> 10000,N#C[C@@H]1C[C@@H]2C[C@@H]2N1C(=O)[C@@H]1CCN1
12,492,"CC(C)(C)OC(=O)NC1CN[C@H](C(=O)N2[C@H](C#N)C[C@@H]3C[C@@H]32)C1 (single isomer, unassigned)"

row,Compound,Ki [nM]
1,N#C[C@@H]1C[C@@H]2C[C@@H]2N1C(=O)[C@H]1NC[C@@H]2C[C@@H]21,52
2,N#C[C@@H]1C[C@@H]2C[C@@H]2N1C(=O)[C@@H]1C[C@@H]2C[C@@H]2N1,> 10000

# Assay: Half Life at 37 degree C and 10 uM in pH 7.0 buffer
# Assay type: ADME
row,Compound,half-life at 10 µM [h]
1,N#Cc1ccc(NC2CN[C@H](C(=O)N3[C@H](C#N)C[C@@H]4C[C@@H]43)C2)cc1Cl (stereo not given in full),15
